How the values were obtained:
[1] = system: etiolated eto1-4 seedlings; assay: Triple response phenotype / hypocotyl length of etiolated eto1-4 seedlings; format: in vivo, Arabidopsis thaliana; conditions: 10 μM; etiolated eto1-4; FIG. 3
Protocol: All mutants and transgenic plants were derived from the wild-type Arabidopsis thaliana Columbia ecotype (Col-0) and cultivated under a long-day condition (16-h light/8-h dark at 22° C.) under exemplary e light (100-150 μE m^−2 s^−1). A reporter construct, 5×EBS::LUC (a generous gift from Drs. Hai Li and Anna N. Stepanova, Salk Institute, USA), containing 5 copies of EIN3 binding sequence (EBS) fused with luciferase gene (LUC) was transformed to eto1-4 and subsequently used for screening compounds of a chemical library. Ethylene mutants eto1-4, eto2-1, ctr1-1 and the EIN3 overexpression line (35S::EIN3) were described previously (Solano, et al. (1998) Genes Dev 12, 3703-3714). Seeds were sterilized with 30% bleach for 6 min and sown in half-strength Murashige and Skoog (0.5×MS) medium supplemented with 0.8% agar and stratified in the dark at 4° C. for 3-4 days before germination. For analysis of the triple response phenotype, stratified seeds were grown in the dark at 22° C. for 3 days before scoring the phenotype.
A DIVERSet library (ChemBridge Inc.) containing 10,000 small molecules (in DMSO) was used for chemical screening. Three rounds of chemical screenings were carried out in 0.5×MS agar medium containing individual chemicals in each well of 96- and 24-well micro-titer plates. The initial screening was performed by sowing 10 to 15 seeds in the wells of micro-titer plates containing small molecules at 50 μM to score the long-hypocotyl phenotype. For the second and third screenings, we used 25 μM of small molecules selected from the first round of screening to score and confirm the phenotype. The seedling phenotype was scored by use of a digital camera attached to a Zeiss stereomicroscope (SteREO V8), and quantitation of hypocotyl length was performed by use of NIH Image J software. AVG and silver thiosulfate (STS, by mixing silver nitrate and sodium thiosulfate at a 1:4 molar ratio immediately before use) were obtained from Sigma and used as controls to suppress ethylene biosynthesis and perception, respectively. Agar medium was supplemented with 1-aminocyclopropane-1-carboxylic acid (10 μM, Merck) to induce the triple response in etiolated seedlings.
Shortened hypocotyls in etiolated seedlings is one of the triple response phenotypes (Guzman, et al. (1990) Plant Cell 2, 513-523; Wang, et al. (2004) Nature 428, 945-950). Two chemical compounds negating ethylene response, AVG and STS, were included as a control for comparison.

[2] = system: 5×EBS::LUC reporter (EIN3 binding sequence) in eto1-4; assay: Luciferase activity of 5×EBS::LUC reporter in eto1-4 seedlings; format: in vivo, Arabidopsis thaliana; conditions: 10 μM
Protocol: For live imaging of luciferase activity, plants were first grown in the dark at 22° C. for 3 days, then under exemplary e light for 3 more days before the luciference of seedlings was imaged. Six-day-old seedlings were sprayed with luciferin (2 μM, Biosynth International Inc.) and kept in the dark for 5 min before collecting images by the Xenogen IVIS System (Caliper Life Sciences, Inc.). For quantitative assay of luciferase activity, the etiolated seedlings mentioned above were transferred to exemplary e micro-titer plates (Packard Optiplate-96, Perkin Elmer Inc.) for an additional 3 days under exemplary e light in 0.5×MS solution. The luciferase activity of seedlings was quantitated by use of a microplate reader (CHAMELEON, Hidex Inc.) in the presence of 2 μM luciferin.
To confirm the suppression of the eto1-4 phenotype resulting from disruption of the ethylene response, the following assays were performed. First, luciferase activity was analyzed with a transgenic reporter line harboring 5 copies of a synthetic promoter fusion with a luciferase gene (LUC), 5×EBS::LUC, in the eto1-4 background.

| Molecule | ranking in both hypocotyl length and ethylene level assays [1] | luciferase activity of 5×EBS::LUC in eto1-4 [2] |
| --- | --- | --- |
| O=C1CC(c2ccccc2Cl)Cc2nc(NC3CCCC3)ncc21 (centres unmarked) [Compound 8107] | most effective |  |
| CC1CC(=O)c2cnc(Nc3ccccc3)nc2C1 (centres unmarked) [Compound 2305] | most effective |  |
| silver thiosulfate [STS] |  | suppressed |
| CCCCNc1ncc2c(n1)CC(c1ccccc1)CC2=O (centres unmarked) [Compound 2616] | most effective |  |
| CC1(C)CC(=O)c2cnc(Nc3ccccc3)nc2C1 [Compound 9028] | most effective |  |
